Reference: patent US20160139120A1 (The Trustees of Columbia University in the City of New York, priority 2013, published 2016)

Experiments:
RAGE-C1q binding = target: T1, RAGE-C1q binding (Homo sapiens, UniProt P02745+P02746+P02747); experiment: ELISA-like C1q-sRAGE binding assay in presence of test substance; conditions: for ability of known RAGE ligands to block C1q binding to immobilized sRAGE: data not shown; for effect on C1q binding to immobilized sRAGE (RAGE-C1q interaction): 0-2 mM compound with 2 μg/ml C1q, 2 h
T1 construct: Three forms of human sRAGE, the extracellular domain of the receptor, were utilized; made in house; host or cells: Sf9 insect cells (baculovirus)
T1 sequence (P02745 23-245): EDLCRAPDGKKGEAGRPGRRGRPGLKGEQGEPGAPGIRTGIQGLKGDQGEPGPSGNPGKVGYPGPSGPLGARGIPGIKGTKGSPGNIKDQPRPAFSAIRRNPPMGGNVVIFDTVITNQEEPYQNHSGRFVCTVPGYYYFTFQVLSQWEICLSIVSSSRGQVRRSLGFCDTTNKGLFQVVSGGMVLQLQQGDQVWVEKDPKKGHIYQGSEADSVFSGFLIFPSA
T1 sequence (P02746 28-253): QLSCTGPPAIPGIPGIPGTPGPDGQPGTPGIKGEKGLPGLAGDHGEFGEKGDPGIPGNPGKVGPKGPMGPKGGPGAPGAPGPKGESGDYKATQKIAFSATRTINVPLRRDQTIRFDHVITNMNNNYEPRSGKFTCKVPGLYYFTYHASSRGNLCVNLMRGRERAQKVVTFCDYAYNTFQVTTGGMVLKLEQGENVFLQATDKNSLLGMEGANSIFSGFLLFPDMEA
T1 sequence (P02747 29-245): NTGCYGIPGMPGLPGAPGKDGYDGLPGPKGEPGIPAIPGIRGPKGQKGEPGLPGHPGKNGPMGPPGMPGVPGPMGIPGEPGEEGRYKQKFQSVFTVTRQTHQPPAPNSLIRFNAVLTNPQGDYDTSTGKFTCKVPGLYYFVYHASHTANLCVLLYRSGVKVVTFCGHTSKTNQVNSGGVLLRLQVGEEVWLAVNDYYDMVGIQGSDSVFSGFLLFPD
Description: “+” and “−” in (B) and (C) indicate whether the C1q was preincubated with monoclonal antibody or not, respectively. Results in (B) and (C) were mean±SD of three independent experiments. *p<0.01 in pair comparison indicated in the graph.
The final peroxidase activity was monitored at 492 nm with o-phenylenediamine dihydrochloride and hydrogen peroxide as substrates. […] Remaining binding sites were blocked with 5% non-fat milk in PBS. […] ECL Western blot detection kit was used to visualize the binding.

U937 cells [1] = experiment: Monocyte adhesion: U937 cells to C1q-coated plate; assay type: cell-based, human; conditions: 2 mM in medium, 24 h
Description: U-937 cells (2×10^5/ml) cultured in RPMI medium containing 10% fetal bovine serum, 100 units/ml of penicillin and 100 μg/ml of streptomycin were incubated with 100 nM of D3 and 2 ng/ml of TGF-β at 37° C. in a 5% CO2 incubator for 24 hours. After washing twice with serum-free RPMI medium, U-937 cells were suspended at concentration of 2×10^5/ml in serum-free RPMI medium containing 0 or 100 μg/ml of chicken anti-human RAGE IgY or 20 μg/ml of F(ab′)2 of mouse anti-human CD11b IgG1. As controls, 100 μg/ml of chicken anti-AGE IgY and 100 μg/ml of mouse IgG1 isotype control were used. […] The cells were cultured for 24 hours, then 50 μl of serum-free RPMI medium containing 15 μM of Calcein AM was added into each well to label U-937 cells with fluorescence for 1 hour. After three gentle washes with Hanks' balanced salt solution, the attached U-937 cells were photographed with regular light and fluorescent light, as shown in panel A. To quantitatively measure cell attachment, the plate was read with fluorescence plate reader with excitation at 485 nm and emission at 530 nm, as shown in panel B. The p value was calculated by student T-test with at least 4 samples for each condition. […]
(A) ARPE-19RAGE cells expressed high level of RAGE protein. Ten micrograms of total proteins from ARPE-19, ARPE-19RAGE and RAGE-transfected C6 cells (C6-RAGE) were analyzed for RAGE expression by Western blot. […]

complement system = experiment: Complement activation assay (C3a formation in human serum); assay type: biochemical
Description: Complement activation was monitored as C3a formation from proteolytic cleavage of C3 by ELISA kit.
C3a was assayed by ELISA kit.
Two different forms of each protein were tested, one was immobilized and the other was free molecule in serum (dissolved). For immobilized forms, 96-well MaxiSorp plate was coated with 50 μg/ml of each protein and blocked with BSA. Complement activation was performed as in (A).
After 1 h incubation, C3a levels in the human serum were determined as a marker of complement activation with human C3a EIA kit according to the manufacturer's instructions.

U-937 cells = experiment: Cytotoxicity and activation/differentiation test on U-937 cells; assay type: cell-based, human
Description: Phenolphthalein bisphosphate has been used in bacteria culture media as phosphatase substrate. […] Phagocytes are major protective cells in the body by ingesting harmful foreign particles, bacteria, and dead or dying cells. In an in vivo abdominal sepsis model caused by intraperitoneally injection with Escherichia coli, RAGE was involved in defense against the growth and/or dissemination of E. coli (The Journal of Infectious Diseases 2009, 200:765-773). In the presence of RAGE, E. coli numbers were much lower in the injection site as well as in major organs of the mouse. With the help of phenolphthalein bisphosphate, we expect that RAGE's function in this sepsis model could be enhanced further.

U937 cells [2] = experiment: Phagocytosis of apoptotic Jurkat cells by differentiated U937 cells (FACS); assay type: cell-based, human; conditions: with addition of C1q; basal level 47%
Description: (A) Representative dot-plots of different cell populations separated by FACS after 2 h phagocytosis of apoptotic Jurkat cells: top-left U937 cells without phagocytosis; top-right phagocytic U937 cells labeled with percentage of total U937 population; bottom-right apoptotic Jurkat cells. (B) FACS analysis of phagocytosis of apoptotic Jurkat cells and effect of anti-RAGE and anti-CD11b antibodies. […] Results in (B) and (D) were mean±SD of three independent experiments. *p<0.01 in pair comparison indicated in the graph.
U937 cells (2×10^5/ml) were differentiated in standard medium containing 100 nM of vitamin D3 and 2 ng/ml of TGF-β1 at 37° C. in a 5% CO2 incubator for 2 days, with refreshment of vitamin D3 and TGF-β1 at 24 h. Differentiated U937 cells were harvested and re-suspended in Hank's Balanced Salt Solution (HESS, containing calcium and magnesium) at 2×10^6/ml, and then labeled with 5 μM of CM-DiI at 37° C. for 20 min. Labeling was ended by washing cells three times with HESS. The resulted cells were re-suspended at 4×10^5/ml in phagocytosis buffer (HESS plus 2 mM MgCl2 and 20 mM glutamate, pH 7.0).
To label Jurkat cells with CFSE (carboxyfluorescein succinimidyl ester), Jurkat cells were incubated with 1 μM of CFDA-SE in HESS for 30 min at 37° C. Harvested cells were resuspended (1×10^6/ml) in HESS containing 1 μM of staurosporine and incubated at 37° C. for 6 h. […]

[3] = tested on: RAGE-overexpressing cells; experiment: Steady state binding of free C1q to RAGE-overexpressing cells; assay type: cell-based, human; conditions: data not shown
Description: RAGE expression was compared with another RAGE over-expressing cell line C6-RAGE, generated from rat astroglial C6 (Taguchi, 2000), with the result shown in FIG. 15A.
FIG. 10E was used (data not shown). […] The results using rat native serum with RAGE-transfected C6 cells produced similarly unremarkable results (results not shown).

Mac-1 = target: T2, Mac-1 (Homo sapiens, UniProt P05107+P11215); experiment: Pull-down of sRAGE and C1q by immobilized Mac-1; assay type: binding; conditions: ½ PBS
T2 construct: purchased R&D Systems 4047-AM
T2 sequence (P05107 23-700 limits assumed, other chains not shown): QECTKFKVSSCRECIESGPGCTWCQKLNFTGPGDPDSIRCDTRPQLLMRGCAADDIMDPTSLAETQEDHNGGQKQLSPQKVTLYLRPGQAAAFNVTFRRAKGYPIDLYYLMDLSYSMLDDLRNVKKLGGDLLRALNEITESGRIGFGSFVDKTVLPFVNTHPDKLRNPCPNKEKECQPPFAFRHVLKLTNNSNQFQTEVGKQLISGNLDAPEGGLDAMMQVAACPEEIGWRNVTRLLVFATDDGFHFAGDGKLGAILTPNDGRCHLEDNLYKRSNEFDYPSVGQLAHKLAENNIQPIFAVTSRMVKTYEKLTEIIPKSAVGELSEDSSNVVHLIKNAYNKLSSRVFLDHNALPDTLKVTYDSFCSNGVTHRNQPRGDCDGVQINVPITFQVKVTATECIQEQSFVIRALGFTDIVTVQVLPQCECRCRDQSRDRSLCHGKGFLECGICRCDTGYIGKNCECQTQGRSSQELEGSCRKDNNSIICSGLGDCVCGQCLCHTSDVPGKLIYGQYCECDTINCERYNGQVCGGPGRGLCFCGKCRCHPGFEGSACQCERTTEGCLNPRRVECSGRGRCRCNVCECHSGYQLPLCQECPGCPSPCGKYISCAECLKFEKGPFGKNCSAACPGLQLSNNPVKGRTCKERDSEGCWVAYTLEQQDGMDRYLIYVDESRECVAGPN
Description: The plate was cooled down on ice for 10 min and washed quickly three-times with cold ½ PBS. […] Stripping of Western blot membranes was performed with buffer from Pierce according to the manufacturer's instructions.

Compound: 51003: known RAGE ligand; S100B obtained from Calbiochem [compound 51003]
- ability of known RAGE ligands to block C1q binding to immobilized sRAGE (RAGE-C1q binding): unable to block C1q binding to immobilized sRAGE

Compound: O=C1OC(c2ccc(OP(=O)([O-])[O-])cc2)(c2ccc(OP(=O)([O-])[O-])cc2)c2ccccc21.[Na+].[Na+].[Na+].[Na+] [phenolphthalein bisphosphate, Phenolphthalein bisphosphate tetrasodium salt]
- effect of compound on U-937 cells adhesion to C1q-coated plate (U937 cells [1]): significantly increase the adherent U-937 cells
- effect of compound on U-937 cells adhesion to C1q-coated plate (U937 cells [1]; listed as Phenolphthalein bisphosphate): Phenolphthalein bisphosphate increased monocytes
- effect on complement activation of sRAGE (complement system; 1 mM compound, 2 μg sRAGE in 20 μl fresh human serum): without enhancement on complement activation
- activation or differentiation of U-937 cells (U-937 cells): couldn't activate or differentiate U-937 cells
- cytotoxicity (U-937 cells; 2 mM): no cytotoxicity
- effect on C1q binding to immobilized sRAGE (RAGE-C1q interaction) (RAGE-C1q binding): Phenolphthalein bisphosphate enhanced RAGE-C1q
- effect on C1q binding to immobilized sRAGE (RAGE-C1q interaction) (RAGE-C1q binding; listed as Phenolphthalein Biphosphate): enhance RAGE-C1q interaction with dose-dependent manor

Compound: AGE-BSA: glycated bovine serum albumin
- ability of known RAGE ligands to block C1q binding to immobilized sRAGE (RAGE-C1q binding): unable to block C1q binding to immobilized sRAGE

Compound: Avastin: a humanized IgG1 antibody for VEGF
- complement activation (C3a) activity relative to sRAGE (complement system; at every coating concentration): about 8 times

Compound: C1q: human C1q protein (Quidel); first subcomponent of the C1 complex of the classical complement pathway
- phagocytic U937 cells population, of total U937 cells (U937 cells [2]): 66%
- binding of free C1q to cells [3]: did not bind
- pull-down by immobilized Mac-1, proteins incubated separately (Mac-1): pulled down
- pull-down by immobilized Mac-1, sRAGE and C1q co-incubated (Mac-1): increased

Compound: Mac-1: recombinant form of human Mac-1 (CD11b/CD18), R&D Systems 4047-AM
- complement activation in liquid phase (complement system; protein(s) preincubated in PBS then added to fresh human serum (FIG. 13B)): could not activate the complement system

Compound: amyloid β protein fragment 1-42 [A-beta]
- ability of known RAGE ligands to block C1q binding to immobilized sRAGE (RAGE-C1q binding): unable to block C1q binding to immobilized sRAGE
